Where two headings read alike, the source gives them in different places.
Experiments:
[1] = Population pharmacokinetic analysis in patients; assay type: in vivo, human; conditions: for Cmax: CV 107%; for half-life: 1-hour intravenous infusion, 3-compartment PK model
Method: A population pharmacokinetic analysis was conducted in 170 patients with solid tumors at doses ranging from 10 to 30 mg/m^2 weekly or every 3 weeks.

CYP3A = experiment: Metabolism of cabazitaxel
Text: Concomitant administration of strong CYP3A inhibitors (for example, ketoconazole, itraconazole, clarithromycin, atazanavir, indinavir, nefazodone, nelfinavir, ritonavir, saquinavir, telithromycin, voriconazole) may increase cabazitaxel concentrations. Therefore co-administration of cabazitaxel with strong CYP3A inhibitors should be avoided. Caution should be exercised with concomitant use of moderate CYP3A inhibitors. One aspect of the invention is a method of treating a patient for prostate cancer comprising determining whether the patient is undergoing treatment with a CYP3A inhibitor, discontinuing treatment with a CYP3A inhibitor, and then administering cabazitaxel to the patient.

breast cancer = conditions: phase II, cited from earlier work
[2] = system: castration resistant metastatic prostate cancer; experiment: Randomized clinical study of cabazitaxel vs mitoxantrone, each with prednisone or prednisolone: efficacy; assay type: in vivo, human
Method: A clinical study was performed wherein patients received either treatment with cabazitaxel or the reference treatment based on mitoxantrone each combined with prednisone or prednisolone.
More specifically, patients over 18 years of age with metastatic castration resistant metastatic prostate cancer either measurable by RECIST criteria or non-measurable disease with rising PSA levels or appearance of new lesions, ECOG (Eastern Cooperative Oncology Group) performance stage 0-2, and adequate organ function (patients had to have neutrophils >1,500 cells/mm^3, platelets >100,000 cells/mm^3, hemoglobin >10 g/dL, creatinine <1.5×upper limit of normal (ULN), total bilirubin <1×ULN, AST <1.5×ULN, and ALT <1.5×ULN) who had had prior hormone therapy, chemotherapy, and radiotherapy, but had progressive during or after docetaxel treatment (cumulative dose ≥225 mg/m^2) were randomized to 10 mg/day of prednisone with either mitoxantrone 12 mg/m^2 or cabazitaxel 25 mg/m^2, both administered every 3 weeks.
Patients with a history of congestive heart failure, or myocardial infarction within the last 6 months, or patients with uncontrolled cardiac arrhythmias, angina pectoris, and/or hypertension were not included in the study.
720 patients were planned to be included in the clinical study: 360 in each cabazitaxel+prednisone and mitoxantrone+prednisone group. Seven hundred and fifty-five patients (755) (median age 68; 84% white) were actually enrolled, 378 in the cabazitaxel and prednisone/prednisolone group and 377 in the mitoxantrone and prednisone/prednisolone group. The maximal number of treatment cycles was 10 for cabazitaxel and 10 for mitoxantrone. The median number of treatment cycles was 6 for cabazitaxel and 4 for mitoxantrone. The median prior dose of docetaxel treatment was 576 mg/m^2 for the cabazitaxel group and 529 mg/m^2 for the mitoxantrone group. Median follow-up was 12.8 months.
The measurements of the results are performed via the same tests as at inclusion. MRI and spiral computed tomographic (CT) scans are preferably used.
The results are evaluated according to the following criteria (cf RECIST guideline): • overall survival (OS): the time from inclusion to the study to the date of death complete response (CR): disappearance of the lesions • partial response (PR): at least 30% reduction of the largest diameter of the lesion progression (PD): at least 20% increase in the sum of the largest diameter of the lesion or appearance of one or more new lesions • stable disease (SD): reduction of the tumour insufficient to be included in PR and increase of the tumour insufficient to be included in PD.
The confirmations of the measurements are made at least 4 weeks after the response criterion has been established for the first time.
The progression-free survival (PFS) is the time from inclusion in the study and the date of progression or death when the progression is either an increase of the PSA, or of the tumour, or of the pain.

## CO[C@H]1C(=O)[C@]2(C)[C@@H](OC)C[C@H]3OC[C@@]3(OC(C)=O)[C@H]2[C@H](OC(=O)c2ccccc2)[C@]2(O)C[C@H](OC(=O)[C@H](O)[C@@H](NC(=O)OC(C)(C)C)c3ccccc3)C(C)=C1C2(C)C [cabazitaxel, 4α-acetoxy-2α-benzoyloxy-5β,20-epoxy-1β-hydroxy-7β,10β-dimethoxy-9-oxo-11-taxen-13α-yl (2R,3S)-3-tert-butoxycarbonyl-amino-2-hydroxy-3-phenylpropionate]
[1]; 10 to 30 mg/m^2, patients with advanced solid tumors
  dose proportionality: No major deviation from the dose proportionality
[1]; at steady state, for a patient with a median BSA of 1.84 m^2
  volume of distribution (Vss): 2,643 L/m^2
[1]; for a patient with a median BSA of 1.84 m^2
  plasma clearance: 26.4 L/h/m^2
[1]; human, plasma, intravenous, 25 mg/m^2, Cmax reached at the end of the 1-hour infusion
  Tmax: 1 h
[1]; human, plasma, intravenous, 25 mg/m^2, amount administered to provide this Cmax, read-out: Cmax
  Cmax: ~0.226 µg/mL
[1]; human, plasma, intravenous, at steady state, read-out: volume of distribution (Vss)
  Vd: 4860 L
[1]; human, plasma, iv, read-out: α-half-life
  half-life: 0.0667 h
[1]; human, plasma, iv, read-out: β-half-life (converted)
  half-life: 2 h
[1]; human, plasma, iv, read-out: γ-half-life (converted)
  half-life: 95 h
[1]; male, human, plasma, 25 mg/m2, intravenous 25 mg/m^2 every 3 weeks, patients with metastatic prostate cancer, read-out: mean Cmax
  Cmax: 0.226 µg/mL
[1]; male, human, plasma, intravenous, patients with metastatic prostate cancer, CV 39%
  clearance: 808 mL/min
[1]; male, human, plasma, iv, 25 mg/m2, intravenous 25 mg/m^2 every 3 weeks, patients with metastatic prostate cancer, CV 34%
  AUC: 0.991 µg·h/mL
[1]; prednisone or prednisolone 10 mg daily
  effect of prednisone or prednisolone on the pharmacokinetics of cabazitaxel: does not affect
CYP3A
  metabolic pathway: primarily metabolized through CYP3A
Breast cancer; prior taxanes and anthracyclines as adjuvant
  response level: 14.6%
Breast cancer; second-line treatment
  response level: 9.5%
[2]; CbzP vs MP, intention-to-treat
  Overall survival Hazard ratio (95% CI): 0.70
  PFS Hazard ratio (95% CI): 0.74
[2]; cabazitaxel vs mitoxantrone, corresponding to hazard ratio 0.70
  reduction in risk of death: 30%
[2]; intention-to-treat
  Discontinuation of study treatment for disease progression, (%): (47.6) %
[2]; intention-to-treat, N = 377 mitoxantrone, N = 378 cabazitaxel
  Discontinuation of study treatment for disease progression, no.: 180
[2]; intention-to-treat, 25 mg/m^2 cabazitaxel or 12 mg/m^2 mitoxantrone every 3 weeks with prednisone
  Overall survival Median: 15.1 months
[2]; intention-to-treat, earliest progression in tumor, PSA or pain
  PFS Median: 2.8 months
